Experimental data from patent publication US7157430B2, “(Substituted)acyl dipeptidyl inhibitors of the ICE/CED-3 family of cysteine proteases” (Idun Pharmaceuticals, Inc., priority 1998, dated 2007).
Where a SMILES comes first, the peptide text is derived from it. The star is where a group is joined. Cbz = O=C(OCc1ccccc1)*; CH2F = FC*

Key:
Format in all cases: biochemical
Conditions in all cases: continuous assay 60 min, reaction initiated by adding enzyme
mICE = target: T1, mICE (Mus musculus, UniProt P29452); experiment: Dissociation constant Ki and irreversible rate constant k3 for irreversible inhibitors, ICE
T1 sequence (P29452 123-296 limits assumed): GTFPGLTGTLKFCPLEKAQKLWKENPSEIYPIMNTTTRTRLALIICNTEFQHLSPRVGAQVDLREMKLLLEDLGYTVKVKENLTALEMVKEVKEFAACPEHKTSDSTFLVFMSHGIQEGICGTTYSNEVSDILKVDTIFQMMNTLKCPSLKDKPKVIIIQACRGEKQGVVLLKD
T1 sequence (P29452 315-402 limits assumed): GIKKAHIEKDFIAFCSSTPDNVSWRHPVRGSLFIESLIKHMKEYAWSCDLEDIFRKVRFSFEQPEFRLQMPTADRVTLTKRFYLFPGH
Source text: (§1) For the irreversible inhibition of a ICE/ced-3 Family Protease enzyme with a competitive irreversible inhibitor; using the model represented by the following formulas: […]
(§2) The product formation at time t may be expressed as:
(§3) [formula] where E, I, EI and E-I denote the active enzyme, inhibitor, non-covalent enzyme-inhibitor complex and covalent enzyme-inhibitor adduct, respectively. The Ki value is the overall dissociation constant of the reversible binding steps, and k3 is the irreversible rate constant. The [S] and Ks values are the substate concentration and dissociation constant of the substrate bound to the enzyme, respectively. [E]^T is the total enzyme concentration.
(§4) The above equations were used to determine the Ki and k3 values of a given inhibitor bound to a ICE/ced-3 family protease. Thus, a continuous assay was run for sixty minutes at various concentrations of the inhibitor and the substrate. The assay was formulated essentially the same as described above for generating the data in Table 1, except that the reaction was initiated by adding the enzyme to the substrate-inhibitor mixture. The Ki and k3 values were obtained by simulating the product AMC formation as a function of time according to Equation 1.
(§5) The reference compound for this assay was Cbz-ValAlaAsp-CH2F and the values are denoted in Table 2 as “Reference”. The Ki values in Table 2 are in micromolar (μM). The k3/Ki values are in moles^−1 seconds^−1 (M^−1s^−1).

CPP32 = target: T2, CPP32 (Homo sapiens, UniProt P42574); experiment: Dissociation constant Ki and irreversible rate constant k3 for irreversible inhibitors, CPP32
T2 sequence (P42574 29-175 limits assumed): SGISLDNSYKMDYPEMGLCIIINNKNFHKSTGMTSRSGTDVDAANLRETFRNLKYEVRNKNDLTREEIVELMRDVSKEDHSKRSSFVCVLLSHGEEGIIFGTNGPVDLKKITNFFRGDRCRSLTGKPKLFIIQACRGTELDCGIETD
T2 sequence (P42574 176-277 limits assumed): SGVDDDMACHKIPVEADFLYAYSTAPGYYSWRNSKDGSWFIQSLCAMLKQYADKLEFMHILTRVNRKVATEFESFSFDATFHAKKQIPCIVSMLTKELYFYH
Source text: as §1, §2, §3, §4, §5

MCH-2 = target: T3, MCH-2 (Homo sapiens, UniProt P55212); experiment: Dissociation constant Ki and irreversible rate constant k3 for irreversible inhibitors, Mch2
T3 sequence (P55212 24-179 limits assumed): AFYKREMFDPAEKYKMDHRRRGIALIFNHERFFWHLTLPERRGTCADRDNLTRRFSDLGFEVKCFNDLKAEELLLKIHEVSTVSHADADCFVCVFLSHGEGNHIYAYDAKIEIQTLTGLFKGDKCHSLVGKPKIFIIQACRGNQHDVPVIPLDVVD
T3 sequence (P55212 194-293 limits assumed): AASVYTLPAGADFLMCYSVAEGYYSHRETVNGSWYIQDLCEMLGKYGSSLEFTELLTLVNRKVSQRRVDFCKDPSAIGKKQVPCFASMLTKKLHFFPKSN
Source text: as §1, §2, §3, §4, §5

MCH-5 = MCH-5 (Homo sapiens, UniProt Q14790); experiment: Dissociation constant Ki and irreversible rate constant k3 for irreversible inhibitors, Mch5
Source text: as §1, §2, §3, §4, §5

Sequence of MCH-5 (Q14790 217-374 limits assumed, species assumed): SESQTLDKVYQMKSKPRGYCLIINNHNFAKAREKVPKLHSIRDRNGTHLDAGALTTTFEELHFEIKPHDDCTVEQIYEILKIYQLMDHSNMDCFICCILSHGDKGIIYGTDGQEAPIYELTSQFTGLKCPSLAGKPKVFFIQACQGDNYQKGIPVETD
Sequence of MCH-5 (Q14790 385-479 limits assumed, species assumed): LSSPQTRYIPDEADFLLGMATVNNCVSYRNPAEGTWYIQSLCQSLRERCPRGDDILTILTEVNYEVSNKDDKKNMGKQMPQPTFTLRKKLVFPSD

CC(C)[C@H](NC(=O)COc1cccc2ccccc12)C(=O)N[C@@H](CC(=O)O)C(=O)COP(C)(C)=O [Example 105]
Ki (mICE): 413 nM | mICE k3/Ki (mICE): 18,000 M^−1s^−1 | CPP32 k3/Ki (CPP32): 44,900 M^−1s^−1 | Ki (CPP32): 341 nM | Ki (MCH-2): 233 nM | MCH-2 k3/Ki (MCH-2): 6,090 M^−1s^−1 | Ki (MCH-5): 160 nM | MCH-5 k3/Ki (MCH-5): 3,700 M^−1s^−1

CC(C)[C@H](NC(=O)COc1cccc2ccccc12)C(=O)N[C@@H](CC(=O)O)C(=O)COc1ccccc1 [Example 64]
Ki (mICE): 262 nM | mICE k3/Ki (mICE): 3,630 M^−1s^−1 | CPP32 k3/Ki (CPP32): 19,200 M^−1s^−1 | Ki (CPP32): 62 nM | Ki (MCH-2): 153 nM | MCH-2 k3/Ki (MCH-2): 2,400 M^−1s^−1 | Ki (MCH-5): 235 nM | MCH-5 k3/Ki (MCH-5): 4,260 M^−1s^−1

CC(C)C[C@H](NC(=O)COc1c(C(=O)O)ccc2ccccc12)C(=O)N[C@@H](CC(=O)O)C(=O)COC(=O)c1c(Cl)cccc1Cl [Example 165, (3S)-3-[N-((2′-Carboxy-1′-Naphthyloxy)Acetyl)Leucinyl]-Amino-5-(2′,6′-Dichlorobenzoyloxy)-4-Oxopentanoic Acid]
Ki (mICE): 396 nM | mICE k3/Ki (mICE): 25,500 M^−1s^−1 | CPP32 k3/Ki (CPP32): 335,000 M^−1s^−1 | Ki (CPP32): 20 nM | Ki (MCH-2): 8 nM | MCH-2 k3/Ki (MCH-2): 116,000 M^−1s^−1 | Ki (MCH-5): 89 nM | MCH-5 k3/Ki (MCH-5): 13,100 M^−1s^−1

CC(C)[C@H](NC(=O)COc1cccc2ccccc12)C(=O)N[C@@H](CC(=O)O)C(=O)COc1cccc(F)c1 [Example 66]
Ki (mICE): 442 nM | mICE k3/Ki (mICE): 2,700 M^−1s^−1 | CPP32 k3/Ki (CPP32): 17,800 M^−1s^−1 | Ki (CPP32): 121 nM | Ki (MCH-2): 344 nM | MCH-2 k3/Ki (MCH-2): 48 M⁻¹ s⁻¹ | Ki (MCH-5): 406 nM | MCH-5 k3/Ki (MCH-5): 460 M⁻¹ s⁻¹

CC(C)[C@H](NC(=O)COc1cccc2ccccc12)C(=O)N[C@@H](CC(=O)O)C(=O)COc1ccc(F)c(F)c1F [Example 74]
Ki (mICE): 280 nM | mICE k3/Ki (mICE): 11,900 M^−1s^−1 | CPP32 k3/Ki (CPP32): 35,800 M^−1s^−1 | Ki (CPP32): 135 nM | Ki (MCH-2): 1250 nM | MCH-2 k3/Ki (MCH-2): 250 M⁻¹ s⁻¹ | Ki (MCH-5): 1080 nM | MCH-5 k3/Ki (MCH-5): 770 M⁻¹ s⁻¹

CC(C)[C@H](NC(=O)COc1cccc2ccccc12)C(=O)N[C@@H](CC(=O)O)C(=O)COc1ccccc1F [Example 65]
Ki (mICE): 305 nM | mICE k3/Ki (mICE): 6,020 M^−1s^−1 | CPP32 k3/Ki (CPP32): 26,800 M^−1s^−1 | Ki (CPP32): 102 nM | Ki (MCH-2): 336 nM | MCH-2 k3/Ki (MCH-2): 0 M⁻¹ s⁻¹ | Ki (MCH-5): 354 nM | MCH-5 k3/Ki (MCH-5): 230 M⁻¹ s⁻¹

CC(C)[C@H](NC(=O)COc1cccc2ccccc12)C(=O)N[C@@H](CC(=O)O)C(=O)COc1cc(F)cc(F)c1F [Example 75]
Ki (mICE): 147 nM | mICE k3/Ki (mICE): 14,700 M^−1s^−1 | CPP32 k3/Ki (CPP32): 60,100 M^−1s^−1 | Ki (CPP32): 61 nM | Ki (MCH-2): 221 nM | MCH-2 k3/Ki (MCH-2): 1,510 M^−1s^−1 | Ki (MCH-5): 794 nM | MCH-5 k3/Ki (MCH-5): 1,470 M^−1s^−1

CC(C)C[C@H](NC(=O)COc1ccccc1-c1ccccc1)C(=O)NC(CC(=O)O)C(=O)CF (mixture of isomers) [Example 57, (3RS)-3-[N-((2-Phenylphenoxy)Acetyl)Leucinyl]Amino-5-Fluoro-4-Oxopentanoic Acid]
Ki (mICE): 120 nM | mICE k3/Ki (mICE): 37,400 M^−1s^−1 | CPP32 k3/Ki (CPP32): 177,000 M^−1s^−1 | Ki (CPP32): 42 nM | Ki (MCH-2): 30 nM | MCH-2 k3/Ki (MCH-2): 91,000 M^−1s^−1 | Ki (MCH-5): 66 nM | MCH-5 k3/Ki (MCH-5): 15,900 M^−1s^−1

CC(C)C[C@H](NC(=O)COc1c(C(=O)O)ccc2ccccc12)C(=O)N[C@@H](CC(=O)O)C(=O)COP(=O)(c1ccccc1)c1ccccc1 [Example 166]
Ki (mICE): 42 nM | mICE k3/Ki (mICE): 149,000 M^−1s^−1 | CPP32 k3/Ki (CPP32): 317,000 M^−1s^−1 | Ki (CPP32): 28 nM | Ki (MCH-2): 11 nM | MCH-2 k3/Ki (MCH-2): 146,000 M^−1s^−1 | Ki (MCH-5): 28 nM | MCH-5 k3/Ki (MCH-5): 80,000 M^−1s^−1

CC(C)[C@H](NC(=O)COc1cccc2ccccc12)C(=O)N[C@@H](CC(=O)O)C(=O)COc1cc(C(F)(F)F)nn1-c1ccccc1 [Example 143]
Ki (mICE): 205 nM | mICE k3/Ki (mICE): 28,300 M^−1s^−1 | CPP32 k3/Ki (CPP32): 121,000 M^−1s^−1 | Ki (CPP32): 50 nM | Ki (MCH-2): 28 nM | MCH-2 k3/Ki (MCH-2): 8,500 M^−1s^−1 | Ki (MCH-5): 37 nM | MCH-5 k3/Ki (MCH-5): 14,500 M^−1s^−1

CC(C)C[C@H](NC(=O)COc1c(C(=O)O)ccc2ccccc12)C(=O)N[C@@H](CC(=O)O)C(=O)COc1c(F)c(F)cc(F)c1F [Example 167]
Ki (mICE): 501 nM | mICE k3/Ki (mICE): 21,300 M^−1s^−1 | CPP32 k3/Ki (CPP32): 56,200 M^−1s^−1 | Ki (CPP32): 89 nM | Ki (MCH-2): 42 nM | MCH-2 k3/Ki (MCH-2): 52,500 M^−1s^−1 | Ki (MCH-5): 126 nM | MCH-5 k3/Ki (MCH-5): 13,600 M^−1s^−1

CC(NC(=O)C(NC(=O)OCc1ccccc1)C(C)C)C(=O)NC(CC(=O)O)C(=O)CF (stereo not drawn) [refer., Cbz-ValAlaAsp-CH2F, reference compound] (Cbz-Val-Ala-Asp-CH2F; configuration not given here)
Ki (mICE): 15 nM | mICE k3/Ki (mICE): 214,000 M^−1s^−1 | CPP32 k3/Ki (CPP32): 12,200 M^−1s^−1 | Ki (CPP32): 820 nM | Ki (MCH-2): 594 nM | MCH-2 k3/Ki (MCH-2): 2,950 M^−1s^−1 | Ki (MCH-5): 18 nM | MCH-5 k3/Ki (MCH-5): 83,300 M^−1s^−1

CC(C)[C@H](NC(=O)COc1cccc2ccccc12)C(=O)N[C@@H](CC(=O)O)C(=O)COc1cc(F)ccc1F [Example 70]
Ki (mICE): 399 nM | mICE k3/Ki (mICE): 12,100 M^−1s^−1 | CPP32 k3/Ki (CPP32): 49,000 M^−1s^−1 | Ki (CPP32): 104 nM | Ki (MCH-2): 357 nM | MCH-2 k3/Ki (MCH-2): 1,330 M^−1s^−1 | Ki (MCH-5): 760 nM | MCH-5 k3/Ki (MCH-5): 480 M⁻¹ s⁻¹

CC(C)[C@H](NC(=O)COc1cccc2ccccc12)C(=O)N[C@@H](CC(=O)O)C(=O)COc1ccnc(C(F)(F)F)n1 [Example 121]
Ki (mICE): 242 nM | mICE k3/Ki (mICE): 24,800 M^−1s^−1 | CPP32 k3/Ki (CPP32): 114,000 M^−1s^−1 | Ki (CPP32): 47 nM | Ki (MCH-2): 120 nM | MCH-2 k3/Ki (MCH-2): 5,150 M^−1s^−1 | Ki (MCH-5): 276 nM | MCH-5 k3/Ki (MCH-5): 3,200 M^−1s^−1

CC(C)[C@H](NC(=O)COc1ccccc1-c1ccccc1)C(=O)N[C@@H](CC(=O)O)C(=O)COC(=O)c1c(Cl)cccc1Cl [Example 150]
Ki (mICE): 263 nM | mICE k3/Ki (mICE): 43,700 M^−1s^−1 | CPP32 k3/Ki (CPP32): 698,000 M^−1s^−1 | Ki (CPP32): 16 nM | Ki (MCH-2): 9 nM | MCH-2 k3/Ki (MCH-2): 400,000 M^−1s^−1 | Ki (MCH-5): 127 nM | MCH-5 k3/Ki (MCH-5): 9,340 M^−1s^−1
